≈ marks a conversion by molar mass, not a printed value.
Legend:
[1] = test system: pinch skin graft from male DBA/2 donors transplanted to male BALB/c recipients; experiment: survival time of pinch skin graft; format: in vivo; conditions: intraperitoneally; mean ± SD
Method: Immunosuppressive activity was evaluated in an in vitro standard pharmacological test procedure to measure lymphocyte proliferation (LAF) and in two in vivo standard pharmacological test procedures. The first in vivo procedure was a popliteal lymph node (PLN) test procedure which measured the effect of compounds of this invention on a mixed lymphocyte reaction and the second in vivo procedure evaluated the survival time of a pinch skin graft.
The second in vivo test procedure is designed to determine the survival time of pinch skin graft from male DBA/2 donors transplanted to male BALB/c recipients. The method is adapted from Billingham R.E. and Medawar P.B., J. Exp. Biol. 28:385-402, (1951). Briefly, a pinch skin graft from the donor is grafted on the dorsum of the recipient as a homograft, and an autograft is used as control in the same region. […] Untreated recipients serve as rejection control. The graft is monitored daily and observations are recorded until the graft becomes dry and forms a blackened scab. This is considered as the rejection day. The mean graft survival time (number of days ±S.D.) of the drug treatment group is compared with the control group.

Candida albicans 3669 = experiment: antifungal plate test, MIC; format: cell-based
Method: (§1) The following represents the typical procedure used. Compound to be tested was placed on sterile dried 1/4" plate disks, and allowed to dry. Agar plates were seeded with fungi and allowed to solidify. The impregnated disks were placed on the seeded Agar surface and incubated for the time required for the particular culture. Results are expressed in MIC (μg/ml) to inhibit growth.

[2] = test system: Candida albicans ATCC 10231; experiment: antifungal plate test, MIC; format: cell-based; conditions: ATCC10231
Method: as §1

[3] = test system: Candida albicans ATCC 38246; experiment: antifungal plate test, MIC; format: cell-based; conditions: ATCC38246
Method: as §1

[4] = test system: Candida albicans ATCC 38247; experiment: antifungal plate test, MIC; format: cell-based; conditions: ATCC38247
Method: as §1

[5] = test system: Candida albicans ATCC 38248; experiment: antifungal plate test, MIC; format: cell-based; conditions: ATCC38248
Method: as §1

SMILES	Skin Graft (days + SD), mean graft survival time [1]	MIC (Candida albicans 3669)	MIC [2]	MIC [3]	MIC [4]	MIC [5]
CO[C@H]1C[C@@H]2CC[C@@H](C)[C@@](O)(O2)C(=O)C(=O)N2CCCC[C@H]2C(=O)O[C@H]([C@H](C)C[C@@H]2CC[C@@H](OC(=O)CNC(=O)CNC(=O)OC(C)(C)C)[C@H](OC)C2)CC(=O)[C@H](C)/C=C(\C)[C@@H](O)[C@@H](OC)C(=O)[C@H](C)C[C@H](C)/C=C/C=C/C=C/1C [Example 1, Rapamycin-42-ester with N-[(1,1-dimethylethoxy)carbonyl]-glycylglycine]	12.0 ± 1.6 days	> 0.4 µg/mL	> 0.4 µg/mL	> 0.4 µg/mL	> 0.4 µg/mL	> 0.4 µg/mL
CO[C@H]1C[C@@H]2CC[C@@H](C)[C@@](O)(O2)C(=O)C(=O)N2CCCC[C@H]2C(=O)O[C@H]([C@H](C)C[C@@H]2CC[C@@H](OC(=O)CNC(=O)CNC(=O)OC(C)(C)C)[C@H](OC)C2)CC(=O)[C@H](C)/C=C(\C)[C@@H](OC(=O)CNC(=O)CNC(=O)OC(C)(C)C)[C@@H](OC)C(=O)[C@H](C)C[C@H](C)/C=C/C=C/C=C/1C [Example 2, Rapamycin-31,42-diester with N-[(1,1-dimethylethoxy)carbonyl]-glycylglycine]	11.5 ± 0.6 days	0.1 µg/mL (≈ 0.0745 µM)	0.1 µg/mL (≈ 0.0745 µM)	0.2 µg/mL (≈ 0.149 µM)	0.2 µg/mL (≈ 0.149 µM)	0.2 µg/mL (≈ 0.149 µM)
CO[C@H]1C[C@@H]2CC[C@@H](C)[C@@](O)(O2)C(=O)C(=O)N2CCCC[C@H]2C(=O)O[C@H]([C@H](C)C[C@@H]2CC[C@@H](OC(=O)CN(C)C(=O)OC(C)(C)C)[C@H](OC)C2)CC(=O)[C@H](C)/C=C(\C)[C@@H](OC(=O)CN(C)C(=O)OC(C)(C)C)[C@@H](OC)C(=O)[C@H](C)C[C@H](C)/C=C/C=C/C=C/1C [Example 3, Rapamycin-31,42-diester with N-[(1,1-dimethylethoxy)carbonyl]-N-methylglycine]	9.0 ± 0.9 days	0.4 µg/mL (≈ 0.318 µM)	0.4 µg/mL (≈ 0.318 µM)	> 0.4 µg/mL	> 0.4 µg/mL	> 0.4 µg/mL
CO[C@H]1C[C@@H]2CC[C@@H](C)[C@@](O)(O2)C(=O)C(=O)N2CCCC[C@H]2C(=O)O[C@H]([C@H](C)C[C@@H]2CC[C@@H](OC(=O)CN(C)C(=O)OC(C)(C)C)[C@H](OC)C2)CC(=O)[C@H](C)/C=C(\C)[C@@H](O)[C@@H](OC)C(=O)[C@H](C)C[C@H](C)/C=C/C=C/C=C/1C [Example 4, Rapamycin-42-ester with N-[(1,1-dimethylethoxy)carbonyl]-N-methylglycine]	12.3 ± 0.5 days	0.2 µg/mL (≈ 0.184 µM)	0.1 µg/mL (≈ 0.0921 µM)	0.4 µg/mL (≈ 0.369 µM)	0.1 µg/mL (≈ 0.0921 µM)	0.1 µg/mL (≈ 0.0921 µM)
CO[C@H]1C[C@@H]2CC[C@@H](C)[C@@](O)(O2)C(=O)C(=O)N2CCCC[C@H]2C(=O)O[C@H]([C@H](C)C[C@@H]2CC[C@@H](OC(=O)[C@H](CCC(=O)OC(C)(C)C)NC(=O)OC(C)(C)C)[C@H](OC)C2)CC(=O)[C@H](C)/C=C(\C)[C@@H](OC(=O)[C@H](CCC(=O)OC(C)(C)C)NC(=O)OC(C)(C)C)[C@@H](OC)C(=O)[C@H](C)C[C@H](C)/C=C/C=C/C=C/1C [Example 5, Rapamycin-31,42-diester with 5-(1,1-dimethylethoxy)-2-[[(1,1-dimethylethoxy)carbonyl]amino]-5-oxopentanoic acid]	8.8 ± 0.9 days	> 0.4 µg/mL	> 0.4 µg/mL	> 0.4 µg/mL	> 0.4 µg/mL	> 0.4 µg/mL
CO[C@H]1C[C@@H]2CC[C@@H](C)[C@@](O)(O2)C(=O)C(=O)N2CCCC[C@H]2C(=O)O[C@H]([C@H](C)C[C@@H]2CC[C@@H](OC(=O)[C@H](CCC(=O)OC(C)(C)C)NC(=O)OC(C)(C)C)[C@H](OC)C2)CC(=O)[C@H](C)/C=C(\C)[C@@H](O)[C@@H](OC)C(=O)[C@H](C)C[C@H](C)/C=C/C=C/C=C/1C [Example 6, Rapamycin-42-ester with 5-(1,1-dimethylethoxy)-2-[[(1,1-dimethylethoxy)carbonyl]amino]-5-oxopentanoic acid]	11.5 ± 3.5 days	> 0.4 µg/mL	0.1 µg/mL (≈ 0.0834 µM)	> 0.4 µg/mL	0.2 µg/mL (≈ 0.167 µM)	0.4 µg/mL (≈ 0.333 µM)
CO[C@H]1C[C@@H]2CC[C@@H](C)[C@@](O)(O2)C(=O)C(=O)N2CCCC[C@H]2C(=O)O[C@H]([C@H](C)C[C@@H]2CC[C@@H](OC(=O)[C@H](CC(=O)OCc3ccccc3)NC(=O)OC(C)(C)C)[C@H](OC)C2)CC(=O)[C@H](C)/C=C(\C)[C@@H](OC(=O)[C@H](CC(=O)OCc2ccccc2)NC(=O)OC(C)(C)C)[C@@H](OC)C(=O)[C@H](C)C[C@H](C)/C=C/C=C/C=C/1C [Example 7, Rapamycin-31,42-diester with 2-[[(1,1-dimethylethoxy)carbonyl]amino]-4-oxo-4-(phenylmethoxy) butanoic acid]	7.7 ± 1.5 days	–	–	–	–	–
CO[C@H]1C[C@@H]2CC[C@@H](C)[C@@](O)(O2)C(=O)C(=O)N2CCCC[C@H]2C(=O)O[C@H]([C@H](C)C[C@@H]2CC[C@@H](OC(=O)C[C@H](NC(=O)OC(C)(C)C)C(=O)OCc3ccccc3)[C@H](OC)C2)CC(=O)[C@H](C)/C=C(\C)[C@@H](OC(=O)C[C@H](NC(=O)OC(C)(C)C)C(=O)OCc2ccccc2)[C@@H](OC)C(=O)[C@H](C)C[C@H](C)/C=C/C=C/C=C/1C [Example 8, Rapamycin-31,42-diester with 3-[[(1,1-dimethylethoxy)carbonyl]amino]-4-oxo-4-(phenylmethoxy) butanoic acid]	–	> 0.4 µg/mL	> 0.4 µg/mL	> 0.4 µg/mL	> 0.4 µg/mL	> 0.4 µg/mL
CO[C@H]1C[C@@H]2CC[C@@H](C)[C@@](O)(O2)C(=O)C(=O)N2CCCC[C@H]2C(=O)O[C@H]([C@H](C)C[C@@H]2CC[C@@H](OC(=O)C[C@H](NC(=O)OC(C)(C)C)C(=O)OCc3ccccc3)[C@H](OC)C2)CC(=O)[C@H](C)/C=C(\C)[C@@H](O)[C@@H](OC)C(=O)[C@H](C)C[C@H](C)/C=C/C=C/C=C/1C [Example 9, Rapamycin-42-ester with 3-[[(1,1-dimethylethoxy)carbonyl]amino]-4-oxo-4-(phenylmethoxy) butanoic acid]	10.3 ± 0.8 days	> 0.4 µg/mL	0.4 µg/mL (≈ 0.328 µM)	> 0.4 µg/mL	0.4 µg/mL (≈ 0.328 µM)	> 0.4 µg/mL
CO[C@H]1C[C@@H]2CC[C@@H](C)[C@@](O)(O2)C(=O)C(=O)N2CCCC[C@H]2C(=O)O[C@H]([C@H](C)C[C@@H]2CC[C@@H](OC(=O)CC[C@H](NC(=O)OC(C)(C)C)C(=O)OC(C)(C)C)[C@H](OC)C2)CC(=O)[C@H](C)/C=C(\C)[C@@H](O)[C@@H](OC)C(=O)[C@H](C)C[C@H](C)/C=C/C=C/C=C/1C [Example 10, Rapamycin-42-ester with 5-(1,1-dimethyloxy)-4-[[(1,1-dimethylethoxy)carbonyl]amino]-5-oxopentanoicacid]	12.7 ± 1.2 days	0.4 µg/mL (≈ 0.333 µM)	0.2 µg/mL (≈ 0.167 µM)	> 0.4 µg/mL	0.2 µg/mL (≈ 0.167 µM)	0.4 µg/mL (≈ 0.333 µM)

— patent US5130307A, “Aminoesters of rapamycin” (American Home Products Corporation, priority 1991, dated 1992)
